# Laboratory results as given in PubChem BioAssay (NCI).
# “And” between values parts separate entries of the source, which are not always exact repeats. Equal values may be shown once.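 Protocol summary: plate cells (96-well), add compound at 5 concentrations, incubate 48 h, interpolate endpoints linearly. GI50 marks 50% less growth. TGI denotes the concentration required for complete inhibition of growth.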
# Experiments:
# Experiment in all cases: NCI-60 cell line screen, 48 h
# [1] = tested on: NCI-H23 lung
# [2] = tested on: CAKI-1 renal
# [3] = tested on: SNB-75 CNS
# [4] = tested on: SK-MEL-5 melanoma
# [5] = tested on: K-562 leukemia
# [6] = tested on: COLO 205 colon
# [7] = tested on: NCI-H460 lung
# [8] = tested on: MDA-MB-435
# [9] = tested on: PC-3 prostate
# [10] = tested on: DU-145 prostate
Structure (SMILES),TGI [1] [µM],TGI [2] [µM],TGI [3] [µM],TGI [4] [µM],TGI [5] [µM],TGI [6] [µM],TGI [7] [µM],GI50 [1] [µM],GI50 [2] [µM],GI50 [8] [µM],TGI [8] [µM],GI50 [3],GI50 [4] [µM],GI50 [6] [µM],GI50 [9] [µM],TGI [9] [µM],GI50 [7] [µM],GI50 [10] [µM],TGI [10] [µM],GI50 [5] [µM]
C1=CC(=P(c2ccccc2)(c2ccccc2)c2ccccc2)C=C1,54.3,32.3,20.8,30.3,11.3,14.8,26,,,,,,,,,,,,,
CN1CCCC2[C@@H]3CCC4c5nonc5CC[C@]4(C)C3CC[C@@]21C (some centres undefined),> 100,> 100,> 100,> 100,> 100,> 100,> 100,,,,,,,,,,,,,
Cn1c(I)c(C#C[Si](C)(C)C)c(=O)n(C(=O)c2ccccc2)c1=O,27.8,6.85,20.5,9.15,,3.2,26.2,8.28,2.56,3.42,13.4,4.2 µM,2.76,1.55,3.52,13.5,8.34,1.95,3.78,
N=C1CCCC1C(=S)SCCC(N)=O (centres undefined),> 100,> 100,> 100,> 100,,> 100,> 100,,,,> 100,,,,,> 100,,,> 100,
COc1ccc(-c2nc3ccccc3s2)cc1OC,> 100,,> 100,39.1,> 100,> 100,59.8,,,,> 100,,,,,> 100,,,,
CCN(CC)C(=S)SSC(C)C,36,19.2,37.6,24.2,,20.6,,16.4,5.99,16.1,49.5,15.8 µM,11.6,0.0412,14.1,29.2,,17.1,35.2,
CC(=O)N1[C@H](C(=O)O)CS[C@H]1c1ccc(F)cc1,> 100,> 100,> 100,> 100,> 100,> 100,> 100,,,,,,,,,,,,,
Cc1cccc(N2C(=O)/C(=C/C(Cl)=C/c3ccc([N+](=O)[O-])cc3)SC2=S)c1C,4.38,,,2.91,> 100,5.08,,1.84,,,,,1.49,1.81,1.39,4.93,,3.98,> 100,0.793
CC(C)(C)C#COC(=O)c1ccccc1,> 100,> 100,,> 100,> 100,> 100,> 100,,,,,,,,,,,,,
COC(=O)C(C(=O)C(=O)Nc1c(C)cccc1C(C)(C)C)c1nc2ccc(Cl)cc2[nH]c1=O (centres undefined),> 100,> 100,> 100,> 100,> 100,,> 100,,,,> 100,,,,,> 100,,,,
O=c1c(Cc2ccccc2)c(O)cc2n1CCC2,> 100,> 100,> 100,> 100,> 100,> 100,> 100,,,,,,,,,,,,,
N/N=C(/Cc1ccccc1)NNO,> 100,> 100,> 100,> 100,> 100,> 100,> 100,,,,,,,,,,,,,
COc1cc(C)c2c(c1)CN1CN2Cc2cc(OC)cc(C)c21,> 100,> 100,46.3,14.4,> 100,> 100,> 100,,,,,,,,,,,,,
O=C(Nc1ccc(Cl)cc1C(F)(F)F)C(=O)Nn1c(=S)[nH]c2ccccc2c1=O,> 100,> 100,> 100,> 100,> 100,,> 100,,,,> 100,,,,,> 100,,,,
O=C(c1ccccc1)C1N=NN(Cc2ccccc2[N+](=O)[O-])C1C(=O)c1ccccc1 (centres undefined),> 100,> 100,> 100,> 100,> 100,> 100,> 100,,,,,,,,,,,,,
Cc1ccc(C2=CC(=O)c3ccccc3C2=O)n1-c1ccccc1,> 100,,> 100,> 100,> 100,> 100,> 100,,,,,,,,,,,,,
COC1=CC(=O)O/C1=C(\OC)C1OC1c1ccccc1 (centres undefined),> 100,> 100,,> 100,,> 100,> 100,,,,> 100,,,,,> 100,,,> 100,
CC(=O)Nc1ccc(C2CC(c3ccc([N+](=O)[O-])cc3)=Nc3ccccc3S2)cc1 (centres undefined),,77.7,> 100,,42,> 100,34.3,,,,,,,,,,,,,
Cc1cc2c(c(C(=O)O)c1C)-c1cccc(Cl)c1C2=O,> 100,> 100,> 100,> 100,> 100,> 100,> 100,,,,,,,,,,,,,
Cn1c(=O)oc2cc(C3CCC(=O)N3Cc3csc(-c4ccccc4)n3)ccc21 (centres undefined),> 100,> 100,> 100,> 100,> 100,> 100,> 100,,,,,,,,,,,,,
Cc1cc(Cl)ccc1NC(=O)CCCC(=O)C1C/C(=N/O)CC/C1=N\O (centres undefined),> 100,> 100,> 100,> 100,> 100,> 100,> 100,,,,,,,,,,,,,
CCOc1c(Br)cc(Br)cc1C=C(C#N)C#N,> 10,,> 10,> 10,> 10,> 10,> 10,,,,> 10,,,,,> 10,,,,
Cc1cc(=O)[nH]c(NNC(C#N)c2cccc([N+](=O)[O-])c2)n1 (centres undefined),> 100,> 100,> 100,> 100,> 100,> 100,> 100,,,,,,,,,,,,,
CCOc1ccc(NC(=O)/C(CC(=O)c2c[n+](=O)c3ccccc3n2[O-])=N\OCCCc2ccccc2)cc1,> 100,> 100,> 100,,> 100,> 100,> 100,,,,,,,,,,,,,
c1ccc2c(c1)[nH]c1c2nc2ccccn21,> 100,> 100,> 100,> 100,> 100,> 100,> 100,,,,,45.6 µM and > 100 µM,,,,,,,,
c1cnc2c(c1)-n1cccc1C1(CCCCC1)NN2,,> 100,> 100,> 100,> 100,> 100,> 100,,,,,,,,,,,,,
